Measurements as given in EP4273147A1, “SUBSTITUTED SPIROLACTAMS, SALTS THEREOF AND THEIR USE AS HERBICIDALLY ACTIVE SUBSTANCES” (Bayer Aktiengesellschaft, priority 2022, dated 2023).

Experiments:
ECHCG [1] = experiment: Herbicidal pre-emergence action (Table A2); type: in vivo, Echinochloa crus-galli; conditions: visual grading after ca. 3 weeks
Outline: (§1)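 One monocotyledonous and one dicotyledonous weed species shared each pot. Seeds were sown in sandy loam and covered over with soil.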

LOLRI = experiment: Herbicidal pre-emergence action (Table A3); type: in vivo, Lolium rigidum; conditions: visual grading after ca. 3 weeks
Outline: as §1

SETVI [2] = experiment: Herbicidal pre-emergence action (Table A5); type: in vivo, Setaria viridis; conditions: visual grading after ca. 3 weeks
Outline: as §1

STEME = experiment: Herbicidal pre-emergence action (Table A6); type: in vivo, Stellaria media; conditions: visual grading after ca. 3 weeks
Outline: as §1

POAAN [3] = experiment: Herbicidal pre-emergence action (Table A7); type: in vivo, Poa annua; conditions: visual grading after ca. 3 weeks
Outline: as §1

ECHCG [4] = experiment: Herbicidal post-emergence action (Table B3); type: in vivo, Echinochloa crus-galli; conditions: rated visually after about 3 weeks
Outline: (§2)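 Visual rating against untreated plants (0% = as control, 100% = dead) made roughly 3 weeks after application. Weed species were grown in sandy loam pots under greenhouse conditions and sprayed at the one-leaf stage, 2–3 weeks post-sowing.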

VERPE [5] = experiment: Herbicidal post-emergence action (Table B10); type: in vivo, Veronica persica
Description: (§3) Seeds of mono- and dicotyledonous weed plants were placed in plastic pots in sandy loam soil (doubly sown with in each case one species of mono- or dicotyledonous weed plants per pot), covered with soil and cultivated in a greenhouse under controlled growth conditions. 2 to 3 weeks after sowing, the test plants were treated at the one-leaf stage. […] After the test plants had been kept in the greenhouse under optimum growth conditions for about 3 weeks, the activity of the preparations was rated visually in comparison to untreated controls. For example, 100% activity = the plants have died, 0% activity = like control plants.

AMARE = experiment: Herbicidal post-emergence action (Table B11); type: in vivo, Amaranthus retroflexus; conditions: application rate 1280 g/ha
Description: as §3

MATIN [6] = experiment: Herbicidal post-emergence action (Table B6); type: in vivo, Matricaria inodora; conditions: rated visually after about 3 weeks
Description: as §3

POAAN [7] = experiment: Herbicidal post-emergence action (Table B7); type: in vivo, Poa annua
Outline: as §2

MATIN [8] = experiment: Herbicidal pre-emergence action (Table A4); type: in vivo, Matricaria inodora; conditions: application rate 1280 g/ha; visual grading after ca. 3 weeks
Outline: as §1

ALOMY = experiment: Herbicidal pre-emergence action (Table A9); type: in vivo, Alopecurus myosuroides; conditions: application rate 1280 g/ha; visual grading after ca. 3 weeks
Source text: (§4) Seeds of mono- and dicotyledonous weed plants were sown in plastic pots (double sowings with one species of mono- and one species of dicotyledonous weed plants per pot), in sandy loam, and covered with soil.

VERPE [9] = experiment: Herbicidal pre-emergence action (Table A11); type: in vivo, Veronica persica; conditions: application rate 1280 g/ha; visual grading after ca. 3 weeks
Source text: as §4

SETVI [10] = experiment: Herbicidal post-emergence action (Table B8); type: in vivo, Setaria viridis; conditions: application rate 1280 g/ha
Description: as §3

ABUTH = experiment: Herbicidal pre-emergence action (Table A1); type: in vivo, Abutilon theophrasti; conditions: application rate 1280 g/ha; visual grading after ca. 3 weeks vs untreated controls (100% = plants have died off, 0% = as control plants)
Source text: as §4

KCHSC = experiment: Herbicidal pre-emergence action (Table A10); type: in vivo, Kochia scoparia; conditions: application rate 1280 g/ha; visual grading after ca. 3 weeks
Outline: as §1

Row | SMILES | pre-emergence activity against ECHCG (ECHCG [1]; application rate 320 g/ha) [%] | pre-emergence activity against LOLRI (LOLRI; application rate 1280 g/ha) [%] | pre-emergence activity against SETVI (SETVI [2]; application rate 320 g/ha) [%] | pre-emergence activity against STEME (STEME; application rate 1280 g/ha) [%] | pre-emergence activity against POAAN (POAAN [3]; application rate 320 g/ha) [%] | post-emergence activity against ECHCG (ECHCG [4]; application rate 1280 g/ha) [%] | post-emergence activity against VERPE (VERPE [5]; application rate 1280 g/ha) [%] | post-emergence activity against AMARE (AMARE) [%] | pre-emergence activity against SETVI (SETVI [2]; application rate 1280 g/ha) [%] | post-emergence activity against POAAN (POAAN [7]; application rate 320 g/ha) [%] | pre-emergence activity against MATIN (MATIN [8]) [%] | post-emergence activity against POAAN (POAAN [7]; application rate 1280 g/ha) [%] | pre-emergence activity against ECHCG (ECHCG [1]; application rate 1280 g/ha) [%] | further results
1 | O=C1N(Cc2ccccc2)CCCC12CCCN(Cc1c(F)cccc1F)C2=O (racemic) [I-068] | 100 | 90 | 100 | 90 | 100 | 90 | 90 | 100 | – | – | – | – | – | –
2 | O=C1N(Cc2ccccc2Cl)CCCC12CCCN(Cc1ccccc1Cl)C2=O (racemic) [I-030] | 90 | – | – | – | – | – | – | – | 100 | 90 | – | – | – | pre-emergence activity against POAAN (POAAN [3]; application rate 1280 g/ha): 90%; post-emergence activity against MATIN (MATIN [6]; application rate 320 g/ha): 90%
3 | O=C1N(Cc2cccc(Cl)c2F)CCCC12CCCN(Cc1cccc(Cl)c1F)C2=O (racemic) [I-007] | 100 | 100 | 100 | 90 | 100 | – | – | 90 | – | – | 90 | 90 | – | pre-emergence activity against ALOMY (ALOMY): 90%; pre-emergence activity against VERPE (VERPE [9]): 90%; post-emergence activity against ECHCG (ECHCG [4]; application rate 320 g/ha): 100%; post-emergence activity against SETVI (SETVI [10]): 90%; post-emergence activity against VERPE (VERPE [5]; application rate 320 g/ha): 90%
4 | COc1ccccc1CN1CCCC2(CCCN(Cc3ccccc3Cl)C2=O)C1=O (racemic) [I-095] | 100 | – | – | – | – | 90 | 90 | 90 | 90 | – | – | – | – | –
5 | Cc1ccc(F)c(CN2CCCC3(CCCN(Cc4c(F)ccc(C)c4F)C3=O)C2=O)c1F (racemic) [I-029] | – | 100 | – | 90 | 90 | 100 | – | – | 100 | – | – | 90 | 100 | post-emergence activity against MATIN (MATIN [6]; application rate 1280 g/ha): 100%
6 | O=C1N(Cc2cccs2)CCCC12CCCN(Cc1cccc(F)c1F)C2=O (racemic) [I-040] | – | – | – | – | 100 | 90 | 90 | 100 | 100 | 100 | 90 | – | 100 | pre-emergence activity against ABUTH (ABUTH): 90%; pre-emergence activity against LOLRI (LOLRI; application rate 320 g/ha): 100%; pre-emergence activity against STEME (STEME; application rate 320 g/ha): 90%; pre-emergence activity against KCHSC (KCHSC): 90%
